Experimental data reported in PubChem BioAssay AID330 (DTP/NCI, 2004).
Several values for one entry are separate records, joined by “and”; a condition that tells them apart may be missing. Identical values can stand only once. Toxic doses and inconclusive results are not listed.

Tested on: P388 leukemia ip, CD2F1 mice, survival T/C
Assay: NCI In Vivo Anticancer Drug Screen. Data for tumor model P388 Leukemia (intraperitoneal) in CD2F1 (CDF1) mice
Details: endpoint: median survival time, higher = longer survival
Method in brief: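 Mice carrying the transplanted tumor received test compound or vehicle. Survival was recorded in each group, and the value is the treated-group measurement divided by that of the vehicle-treated control group.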

[1] = dose: 100.0 mg/kg/injection, schedule: Q01DX009 (ip), vehicle: saline with Tween-80
[2] = dose: 200.0 mg/kg/injection, schedule: Q01DX009 (ip), vehicle: saline with Tween-80
[3] = dose: 50.0 mg/kg/injection, schedule: Q01DX005 (ip), vehicle: saline
[4] = dose: 100.0 mg/kg/injection, schedule: Q01DX005 (ip), vehicle: saline
[5] = dose: 200.0 mg/kg/injection, schedule: Q01DX005 (ip), vehicle: saline
[6] = dose: 60.0 mg/kg/injection, schedule: Q01DX005 (ip), vehicle: saline with Tween-80
[7] = dose: 120.0 mg/kg/injection, schedule: Q01DX005 (ip), vehicle: saline with Tween-80
[8] = dose: 240.0 mg/kg/injection, schedule: Q01DX005 (ip), vehicle: saline with Tween-80
[9] = dose: 6.25 mg/kg/injection, schedule: Q01DX009 (ip), vehicle: saline
[10] = dose: 12.5 mg/kg/injection, schedule: Q01DX009 (ip), vehicle: saline
[11] = dose: 25.0 mg/kg/injection, schedule: Q01DX009 (ip), vehicle: saline

`Nc1nsc2nc3ccccc3cc12` was tested, and the T/C (dose: 6.25 mg/kg/injection, schedule: Q01DX005 (ip), vehicle: Klucel (hydroxypropylcellulose) (HPC)) was 102 % of control, the T/C (dose: 12.5 mg/kg/injection, schedule: Q01DX005 (ip), vehicle: Klucel (hydroxypropylcellulose) (HPC)) was 100 % of control and the T/C (dose: 25.0 mg/kg/injection, schedule: Q01DX005 (ip), vehicle: Klucel (hydroxypropylcellulose) (HPC)) was 99 % of control. For the same compound, the T/C (dose: 100.0 mg/kg/injection, schedule: Q01DX005 (ip), vehicle: Klucel (hydroxypropylcellulose) (HPC)) was 112 % of control and the T/C (dose: 200.0 mg/kg/injection, schedule: Q01DX005 (ip), vehicle: Klucel (hydroxypropylcellulose) (HPC)) was 102 % of control.
With `CCCCCCCC[As](CCCCCCCC)SCC1OC(OC(C)=O)C(OC(C)=O)C(OC(C)=O)C1OC(C)=O` (stereo not given) the T/C (dose: 50.0 mg/kg/injection, schedule: Q01DX009 (ip), vehicle: saline with Tween-80) was 101 % of control, the T/C [1] was 96 % of control and the T/C [2] was 99 % of control.
`COc1ccc2[nH]c3c(C)c4cc[n+](CCCCCCCC[n+]5ccc6c(C)c7[nH]c8ccc(OC)cc8c7c(C)c6c5)cc4c(C)c3c2c1` was tested, and the T/C (dose: 0.78 mg/kg/injection, schedule: Q04DX003 (ip), vehicle: other) was 117 % of control, the T/C (dose: 25.0 mg/kg/injection, schedule: Q04DX003 (ip), vehicle: other) was 122 % of control and the T/C (dose: 50.0 mg/kg/injection, schedule: Q04DX003 (ip), vehicle: other) was 119 % of control.
With `NC1C(NO)OC(CO)C(O)C1O` (stereo not given) the T/C [3] was 97 % of control, the T/C [4] was 96 % of control and the T/C [5] was 97 % of control.
`Cc1cc([N+](=O)[O-])c(S(N)(=O)=O)c([N+](=O)[O-])c1` was tested, and the T/C (dose: 3.13 mg/kg/injection, schedule: Q01DX009 (ip), vehicle: water) was 96 % of control, the T/C (dose: 6.25 mg/kg/injection, schedule: Q01DX009 (ip), vehicle: water) was 96 % of control and the T/C (dose: 12.5 mg/kg/injection, schedule: Q01DX009 (ip), vehicle: water) was 99 % of control. The T/C (dose: 25.0 mg/kg/injection, schedule: Q01DX009 (ip), vehicle: water) was 97 % of control and the T/C (dose: 50.0 mg/kg/injection, schedule: Q01DX009 (ip), vehicle: water) was 98 % of control.
`CSc1ccc(N2C(=O)CCSC2=S)cc1Cl` was tested, and the T/C (dose: 50.0 mg/kg/injection, schedule: Q01DX009 (ip), vehicle: suspension in saline) was 108 % of control, the T/C (dose: 100.0 mg/kg/injection, schedule: Q01DX009 (ip), vehicle: suspension in saline) was 110 % of control and the T/C (dose: 200.0 mg/kg/injection, schedule: Q01DX009 (ip), vehicle: suspension in saline) was 114 % of control.
With `CCNC(=O)OCC1=C(COC(=O)NCC)C2OC1C(C(=O)OC)=C2C(=O)OC` the T/C (dose: 3.13 mg/kg/injection, schedule: Q01DX009 (ip), vehicle: distilled water + Tween-80) was 100 % of control, the T/C (dose: 6.25 mg/kg/injection, schedule: Q01DX009 (ip), vehicle: distilled water + Tween-80) was 98 % of control and the T/C (dose: 12.5 mg/kg/injection, schedule: Q01DX009 (ip), vehicle: distilled water + Tween-80) was 100 % of control and 87 % of control. The T/C (dose: 25.0 mg/kg/injection, schedule: Q01DX009 (ip), vehicle: distilled water + Tween-80) was 109 % of control.
`CCc1nc(-c2ccccc2)c(-c2ccccc2)[nH]1` was tested, and the T/C (dose: 100.0 mg/kg/injection, schedule: Q04DX003 (ip), vehicle: saline with Tween-80) was 90 % of control, the T/C (dose: 200.0 mg/kg/injection, schedule: Q04DX003 (ip), vehicle: saline with Tween-80) was 90 % of control and the T/C (dose: 400.0 mg/kg/injection, schedule: Q04DX003 (ip), vehicle: saline with Tween-80) was 95 % of control.
`COC1(OC)C(C#N)(C#N)C2(C(=O)Nc3ccccc32)C1(OC)OC` (stereo not given) was tested, and the T/C (dose: 60.0 mg/kg/injection, schedule: Q01DX005 (ip), vehicle: Klucel (hydroxypropylcellulose) (HPC)) was 97 % of control, the T/C (dose: 120.0 mg/kg/injection, schedule: Q01DX005 (ip), vehicle: Klucel (hydroxypropylcellulose) (HPC)) was 101 % of control and the T/C (dose: 240.0 mg/kg/injection, schedule: Q01DX005 (ip), vehicle: Klucel (hydroxypropylcellulose) (HPC)) was 103 % of control.
`CCCCNC(=O)c1ccccc1C(=O)NC1(C(=O)NCCCC)CCCC1` was tested, and the T/C (dose: 50.0 mg/kg/injection, schedule: Q01DX005 (ip), vehicle: saline with Tween-80) was 101 % of control, the T/C (dose: 100.0 mg/kg/injection, schedule: Q01DX005 (ip), vehicle: saline with Tween-80) was 97 % of control and the T/C (dose: 200.0 mg/kg/injection, schedule: Q01DX005 (ip), vehicle: saline with Tween-80) was 93 % of control.
In the case of `C1COCCNCCOCCOCCN1`, the T/C [3] is reported as 95 % of control, the T/C [4] is reported as 106 % of control and the T/C [5] is reported as 95 % of control.
`Cc1ccc([N+](=O)[O-])cc1NC(=O)NNC(=O)CNC(=O)NCc1ccco1` was tested, and the T/C [6] was 93 % of control, the T/C [7] was 89 % of control and the T/C [8] was 89 % of control.
`CONC(=O)N/N=C\c1c(CO)cnc(C)c1O` was tested, and the T/C (dose: 7.5 mg/kg/injection, schedule: Q01DX005 (ip), vehicle: Klucel (hydroxypropylcellulose) (HPC)) was 105 % of control, the T/C (dose: 15.0 mg/kg/injection, schedule: Q01DX005 (ip), vehicle: Klucel (hydroxypropylcellulose) (HPC)) was 102 % of control and the T/C (dose: 30.0 mg/kg/injection, schedule: Q01DX005 (ip), vehicle: Klucel (hydroxypropylcellulose) (HPC)) was 102 % of control.
With `COc1ccc2c(c1)OC1CC2NC(N)=N1` (stereo not given) the T/C [9] was 100 % of control, the T/C [10] was 107 % of control and the T/C [11] was 109 % of control.
`N=C(N)Cc1ccc(NC(=O)c2ccc(C(=O)Nc3ccc(CC(=N)N)cc3)cc2)cc1` was tested, and the T/C (dose: 9.37 mg/kg/injection, schedule: Q01DX001 (ip), vehicle: saline with Tween-80) was 120 % of control, the T/C (dose: 18.75 mg/kg/injection, schedule: Q01DX001 (ip), vehicle: saline with Tween-80) was 120 % of control and the T/C (dose: 37.5 mg/kg/injection, schedule: Q01DX001 (ip), vehicle: saline with Tween-80) was 115 % of control.
For `Cc1nc2[nH][nH]c(=O)c2nc1C`, the T/C [1] was 100 % of control, the T/C (dose: 100.0 mg/kg/injection, schedule: Q01DX009 (ip), vehicle: saline) was 108 % of control and the T/C [2] was 96 % of control. The T/C (dose: 200.0 mg/kg/injection, schedule: Q01DX009 (ip), vehicle: saline) was 102 % of control, the T/C (dose: 400.0 mg/kg/injection, schedule: Q01DX009 (ip), vehicle: saline with Tween-80) was 94 % of control and the T/C (dose: 400.0 mg/kg/injection, schedule: Q01DX009 (ip), vehicle: saline) was 102 % of control. The T/C (dose: 600.0 mg/kg/injection, schedule: Q01DX009 (ip), vehicle: saline with Tween-80) was 94 % of control and the T/C (dose: 600.0 mg/kg/injection, schedule: Q01DX009 (ip), vehicle: saline) was 98 % of control.
In the case of `O=C(O)c1cn2ccccc2c1[N+](=O)[O-]`, the T/C (dose: 100.0 mg/kg/injection, schedule: Q04DX002 (ip), vehicle: saline with Tween-80) is reported as 94 % of control, the T/C (dose: 200.0 mg/kg/injection, schedule: Q04DX002 (ip), vehicle: saline with Tween-80) is reported as 92 % of control and the T/C (dose: 400.0 mg/kg/injection, schedule: Q04DX002 (ip), vehicle: saline with Tween-80) is reported as 96 % of control.
In the case of `CNC1CC(C)(O)Cc2cc3c(c(O)c21)C(=O)c1c(O)cc2c(c1C3=O)OC1OC2(C)C(O)C(N(C)C)C1O` (stereo not given), the T/C (dose: 12.5 mg/kg/injection, schedule: Q01DX009 (ip), vehicle: other) is reported as 153 % of control and the T/C (dose: 25.0 mg/kg/injection, schedule: Q01DX009 (ip), vehicle: other) is reported as 158 % of control.
In the case of `CC(=O)Oc1cc2c(cc1OC(C)=O)OCC(c1ccc(C)cc1)C2` (stereo not given), the T/C [6] is reported as 105 % of control, the T/C [7] is reported as 108 % of control and the T/C [8] is reported as 107 % of control.
`CCN=C(c1ccc(NC(=O)c2ccc(C(=O)Nc3ccc(C(=NCC)N(CC)CC)cc3)c(Cl)c2)cc1)N(CC)CC` was tested, and the T/C (dose: 0.05 mg/kg/injection, schedule: Q01DX005 (ip), vehicle: saline) was 104 % of control, the T/C (dose: 0.09 mg/kg/injection, schedule: Q01DX005 (ip), vehicle: saline) was 87 % of control and the T/C (dose: 0.19 mg/kg/injection, schedule: Q01DX005 (ip), vehicle: saline) was 97 % of control. For the same compound, the T/C (dose: 0.39 mg/kg/injection, schedule: Q01DX005 (ip), vehicle: saline) was 102 % of control and 97 % of control.
With `Cc1cc(OC(=O)Nc2ccc(C(C)C)cc2)c(C)cc1Br` the T/C [9] was 89 % of control, the T/C [10] was 92 % of control and the T/C [11] was 98 % of control. For the same compound, the T/C (dose: 100.0 mg/kg/injection, schedule: Q01DX009 (ip), vehicle: saline + alcohol) was 98 % of control and the T/C (dose: 200.0 mg/kg/injection, schedule: Q01DX009 (ip), vehicle: saline + alcohol) was 110 % of control.
